# Reference: US12466835B1, “Solid forms of macrocyclic compounds, salts and formulations thereof, and methods of preparing and using the same” (Kura Oncology, Inc., priority 2023, dated 2025)
# Key:
# Format in all cases: physicochemical
# [1] = Solubility testing of solid forms in water, SGF, FaSSIF and FeSSIF media
# Method: About 15 mg of test material was weighed into a sample vial and then 3.0 mL of water, simulated gastric fluid (SGF), fasted state simulated intestinali fluid (FaSSIF), or fed state simulated intestinal fluid (FeSSIF) media was added. The resulting suspensions were shaken at 37° C. for up to 24 hours. At 0.5, 2, and 24 hours, suspensions were filtered, and test material concentrations in the filtrates were analyzed by HPLC. Residual solids were collected for analysis.
# [2] = Stability testing of blended samples exposed to high temperature and/or humidity for four weeks
# Source text: Compound 1, microcrystalline cellulose, D-mannitol, croscarmellose sodium, and magnesium stearate were blended using standard methods. Results from stability testing from exposure of blended samples to high temperature and/or humidity for four weeks are provided in Table 8.
# [3] = Four-week excipient compatibility study under accelerated stress conditions; conditions: four weeks, 40° C./75% relative humidity and 60° C. accelerated stress conditions
# [4] = Powder properties of Form 1 (bulk density, flowability)
# Source text: Use of a glidant, disintegrant, and lubricant allowed for acceptable tableting and disintegration characteristics.
# [5] = FaSSIF, pH of media 6.5, 37° C., listed as Fumarate (Form 8)
# [6] = FeSSIF, pH of media 5.0, 37° C.
# [7] = FeSSIF, pH of media 5.0, 37° C., listed as Fumarate (Form 8)
# [8] = SGF, pH of media 1.2, 37° C., listed as Fumarate (Form 8)
# [9] = Water, 37° C., listed as Fumarate (Form 8)
# [10] = SGF, pH of media 1.2, 37° C., listed as 1-Hydroxy-2-naphthoate (Form 13)
# [11] = Water, 37° C., listed as 1-Hydroxy-2-naphthoate (Form 13)
# [12] = FaSSIF, pH of media 6.5, 37° C., listed as Free base (Form 1)
# [13] = FeSSIF, pH of media 5.0, 37° C., listed as Free base (Form 1)
# [14] = SGF, pH of media 1.2, 37° C., listed as Free base (Form 1)
# [15] = Water, 37° C., listed as Free base (Form 1)
# [16] = FaSSIF, pH of media 6.5, 37° C.
structure (smiles),measurement,setting,value
"Cn1cncc1[C@@]1(N)c2ccc(C#N)c(c2)COc2cccc(c2)-c2cc(C#N)nc3ccc1cc23 [Form 8, (S)-3-amino-3-(1-methyl-1H-imidazol-5-yl)-6-oxa-2(4,6)-quinolina-1,4(1,3)-dibenzenacyclohexaphane-2^2,4^4-dicarbonitrile]",Solubility (mg/mL) 2 h,[1]; [5],0.16 mg/mL
same,Solubility (mg/mL) 24 h,[1]; [5],0.45 mg/mL
same,Solubility (mg/mL) 2 h,[1]; [6],~1.26 mg/mL
same,Solubility (mg/mL) 2 h,[1]; [7],1.26 mg/mL
same,Solubility (mg/mL) 24 h,[1]; [6],~1.15 mg/mL
same,Solubility (mg/mL) 24 h,[1]; [7],1.15 mg/mL
same,Solubility (mg/mL) 2 h,"[1]; SGF, pH of media 1.2, 37° C.",≥ 5 mg/mL
same,Solubility (mg/mL) 2 h,[1]; [8],~5 mg/mL
same,Solubility (mg/mL) 24 h,"[1]; SGF, pH of media 1.2, 37° C.",≥ 5 mg/mL
same,Solubility (mg/mL) 24 h,[1]; [8],~5 mg/mL
same,Solubility (mg/mL) 2 h,[1]; [9],0.43 mg/mL
same,Solubility (mg/mL) 24 h,[1]; [9],0.34 mg/mL
"Cn1cncc1[C@@]1(N)c2ccc(C#N)c(c2)COc2cccc(c2)-c2cc(C#N)nc3ccc1cc23 [Compound 1, (S)-3-amino-3-(1-methyl-1H-imidazol-5-yl)-6-oxa-2(4,6)-quinolina-1,4(1,3)-dibenzenacyclohexaphane-2^2,4^4-dicarbonitrile]",% Purity 60° C.,[2],99.35%
same,Compatibility with Tablet Formulation 1 excipients,[3],no incompatibility
"Cn1cncc1[C@@]1(N)c2ccc(C#N)c(c2)COc2cccc(c2)-c2cc(C#N)nc3ccc1cc23 [Form 13, (S)-3-amino-3-(1-methyl-1H-imidazol-5-yl)-6-oxa-2(4,6)-quinolina-1,4(1,3)-dibenzenacyclohexaphane-2^2,4^4-dicarbonitrile]",Solubility (mg/mL) 2 h,"[1]; FaSSIF, pH of media 6.5, 37° C., listed as 1-Hydroxy-2-naphthoate (Form 13)",0.086 mg/mL
same,Solubility (mg/mL) 2 h,[1]; [6],~0.82 mg/mL
same,Solubility (mg/mL) 2 h,"[1]; FeSSIF, pH of media 5.0, 37° C., listed as 1-Hydroxy-2-naphthoate (Form 13)",0.82 mg/mL
same,Solubility (mg/mL) 2 h,"[1]; SGF, pH of media 1.2, 37° C.",~4.05 mg/mL
same,Solubility (mg/mL) 2 h,[1]; [10],4.05 mg/mL
same,Solubility (mg/mL) 24 h,"[1]; SGF, pH of media 1.2, 37° C.",~4.12 mg/mL
same,Solubility (mg/mL) 24 h,[1]; [10],4.12 mg/mL
same,Solubility (mg/mL) 2 h,[1]; [11],0.020 mg/mL
same,Solubility (mg/mL) 24 h,[1]; [11],0.013 mg/mL
"Cn1cncc1[C@@]1(N)c2ccc(C#N)c(c2)COc2cccc(c2)-c2cc(C#N)nc3ccc1cc23 [Form 1, (S)-3-amino-3-(1-methyl-1H-imidazol-5-yl)-6-oxa-2(4,6)-quinolina-1,4(1,3)-dibenzenacyclohexaphane-2^2,4^4-dicarbonitrile]",Solubility (mg/mL) 2 h,[1]; [12],0.0066 mg/mL
same,Solubility (mg/mL) 24 h,[1]; [12],0.011 mg/mL
same,Solubility (mg/mL) 2 h,[1]; [6],~0.31 mg/mL
same,Solubility (mg/mL) 2 h,[1]; [13],0.31 mg/mL
same,Solubility (mg/mL) 24 h,[1]; [6],~0.33 mg/mL
same,Solubility (mg/mL) 24 h,[1]; [13],0.33 mg/mL
same,Solubility (mg/mL) 2 h,"[1]; SGF, pH of media 1.2, 37° C.",~5.04 mg/mL
same,Solubility (mg/mL) 2 h,[1]; [14],5.04 mg/mL
same,Solubility (mg/mL) 24 h,"[1]; SGF, pH of media 1.2, 37° C.",~3.67 mg/mL
same,Solubility (mg/mL) 24 h,[1]; [14],3.67 mg/mL
same,Solubility (mg/mL) 2 h,[1]; [15],<LOD
same,Solubility (mg/mL) 24 h,[1]; [15],<LOD
same,bulk density,[4],about 0.2 g/mL
"Cn1cncc1[C@@]1(N)c2ccc(C#N)c(c2)COc2cccc(c2)-c2cc(C#N)nc3ccc1cc23 [Amorphous free base, (S)-3-amino-3-(1-methyl-1H-imidazol-5-yl)-6-oxa-2(4,6)-quinolina-1,4(1,3)-dibenzenacyclohexaphane-2^2,4^4-dicarbonitrile]",Solubility (mg/mL) 2 h,[1]; [16],0.085 mg/mL
same,Solubility (mg/mL) 24 h,[1]; [16],0.09 mg/mL
same,Solubility (mg/mL) 2 h,[1]; [6],1.22 mg/mL
same,Solubility (mg/mL) 24 h,[1]; [6],1.29 mg/mL
same,Solubility (mg/mL) 2 h,"[1]; SGF, pH of media 1.2, 37° C.",~5 mg/mL
same,Solubility (mg/mL) 24 h,"[1]; SGF, pH of media 1.2, 37° C.",~5 mg/mL
same,Solubility (mg/mL) 2 h,"[1]; Water, 37° C.",0.002 mg/mL
same,Solubility (mg/mL) 24 h,"[1]; Water, 37° C.",0.0009 mg/mL
